This is an account of results in patent publication US20030040510A1, “Selective estrogen receptor modulators in combination with estrogens” (Endorecherche, Inc., priority 2000, published 2003).

The subject of test [1] is ovariectomized female rats. As to the kind of experiment: Prevention of bone loss, body fat, serum cholesterol and ALP, 26-week treatment of OVX rats (Example 5A, experiment 2). It counts as in vivo, Sprague-Dawley rats. To be noted: 26 weeks. How it is done: (§1) Ten to twelve week-old female Sprague-Dawley rats (Crl:CD(SD)Br) (Charles River Laboratory, St-Constant, Canada) weighing approximately 220-270 g at start of treatment were used. The animals were acclimatized to the environmental conditions (temperature: 22±3° C.; humidity: 50±20%; 12-h light-12-h dark cycles, lights on at 07:15 h) for at least 1 week before starting the experiments. The animals were housed individually and were allowed free access to tap water and a pelleted certified rodent feed (Lab Diet 5002, Ralston Purina, St-Louis, Mo.). Experiments were conducted in an animal facility approved by the Canadian Council on Animal Care (CCAC) and the Association for Assessment and Accreditation of Laboratory Animal Care (AAALAC) in accordance with the CCAC Guide for Care and Use of Experimental Animals.
On day 1 of the study, the animals of the appropriate groups were bilaterally OVX under isoflurane anesthesia. Tested compounds were administered as suspension in 0.4% methylcellulose by oral gavage. Treatments were initiated on day 2 of the study and were performed once daily during 26 weeks. In both experiments, animals not receiving a test article were treated with the appropriate vehicle alone during the same period.
(§2) After 3 months (experiment 1) or 26 weeks (experiment 2) of treatment, individual rats under Isoflurane anesthesia had their whole body skeleton and lumbar spine scanned using dual energy x-ray absorptiometry (DEXA; QDR 4500A, Hologic, Waltham, Mass.) and a Regional High Resolution Scan software. The bone mineral density (BMD) of the lumbar spine (vertebrae L2 to L4) and the total body composition (fat percentage) were determined.
(§3) After 3 months (experiment 1) or 26 weeks (experiment 2) of treatment, blood samples were collected at the jugular vein from overnight fasted animals (under Isoflurane anesthesia). Samples were processed for serum preparation and frozen at −80° C. until assay. Serum cholesterol levels and alkaline phospatase activity (ALP) were determined using the Boehringer Mannheim Diagnostic Hitachi 911 Analyzer (Boehringer Mannheim Diagnostic Laboratory Systems).

In test [2] the test system is breast and endometrial tissues. As to the kind of experiment: Antiestrogens tested for SERM function and estrogenic activity in breast and endometrium. To be noted: for Estrogenic activity in breast and endometrial tissues: physiological or pharmacological concentrations. The source says:
As used herein, a selective estrogen receptor modulator (SERM) is a compound that either directly or through its active metabolite functions as an estrogen receptor antagonist (“antiestrogen”) in breast tissue, yet provides estrogenic or estrogen-like effect on bone tissue and on serum cholesterol levels (i.e. by reducing serum cholesterol). Non-steroidal compounds that function as estrogen receptor antagonists in vitro or in human or rat breast tissue (especially if the compound acts as an antiestrogen on human breast cancer cells) is likely to function as a SERM. Conversely, steroidal antiestrogens tend not to function as SERMs because they tend not to display any beneficial effect on serum cholesterol. […] These SERMs may be called “pure SERMs”. […] This second series of SERMs may be called “mixed SERMs”. The unwanted estrogenic activities of these “mixed SERMs”, may be inhibited by addition of pure “SERMs” as shown in FIGS. 6 and 7 in in vitro tests and in FIG. 9 in an in vivo test of breast cancer.

Another test relates to ZR-75-1 breast tumors. As to the kind of experiment: Growth and response category of human ZR-75-1 breast tumors in OVX nude mice, 7 antiestrogens, 161 days (Example 8). The following applies: 161 days; for Change of ZR-75-1 tumor size compared to the OVX control group: 200 μg daily alone. The format is in vivo. How it is done: The mice (5 per cage) were housed in vinyl cages equipped with air filter lids, which were kept in laminar airflow hoods and maintained under pathogen-limiting conditions. The photoperiod was 12 hours of light and 12 hours of darkness (lights on at 07:15). Cages, bedding and food (Agway Pro-Lab R-M-H Diet #4018) were autoclaved before use. Water was autoclaved and provided ad libitum. Bilateral ovariectomy was performed under isoflurane-induced anesthesia. […] Randomization and treatments were started one week later. […] The 17 groups included two control groups (OVX and OVX+Estrone), seven groups supplemented with an estrone implant and treated with an antiestrogen and eight other groups that received an antiestrogen alone. The estrone implants were then removed from the animals in the ovariectomized control group (OVX) and in groups that were to receive the antiestrogen alone. […] Tamoxifen was purchased from […], Israel) while toremifene citrate was purchased from Orion (Espoo, Finland). […] Animals in both control groups received 0.2 ml of the vehicle alone. The antiestrogen suspensions at the appropriate concentration were prepared each month, stored at 4° C. and used under constant agitation. Powder stock were hermetically stored at 4° C. […] Tumor response was assessed at the end of the study or at death of each animal, if it occurred during the course of the experiment. In this case, only data of mice that survived for at least half of the study (84 days) were used in the tumor response analysis.

A further test concerns endometrial epithelium. The test can be described thus: Thickness of uterine (endometrial) epithelial cells in the mice of Example 8. To be noted: for Endometrial epithelium thickness: OVX + antiestrogen 200 μg daily, no estrone, 161 days. It counts as in vivo, nude mice. The source says:
The 17 groups included two control groups (OVX and OVX+Estrone), seven groups supplemented with an estrone implant and treated with an antiestrogen and eight other groups that received an antiestrogen alone. The estrone implants were then removed from the animals in the ovariectomized control group (OVX) and in groups that were to receive the antiestrogen alone. […] Tamoxifen was purchased from […], Israel) while toremifene citrate was purchased from Orion (Espoo, Finland). […] Animals in both control groups received 0.2 ml of the vehicle alone. The antiestrogen suspensions at the appropriate concentration were prepared each month, stored at 4° C. and used under constant agitation. Powder stock were hermetically stored at 4° C. […] After 161 days of treatment, the remaining animals were anesthetized with isoflurane and killed by exsanguination. […] The uteri were prepared to evaluate endometrial thickness by image analysis performed with Image Pro-Plus (Media Cybernetics, Maryland, USA). […] Hematoxylin- and eosin-stained sections of mice uteri were analysed. […] Mean epithelial cell height was measured in all animals of each group.

For test [3], the system named is ovariectomized rats supplemented with 17β-estradiol. The test can be described thus: EM-652.HCl with oral 17β-estradiol for 2 weeks in OVX rats: uterus, endometrial epithelium, vagina, serum cholesterol (Example 10). The format is in vivo, Sprague-Dawley rats. How it is done: Ten to twelve week-old female Sprague-Dawley rats (Crl:CD(SD)Br) (Charles River Laboratory, St-Constant, Canada) weighing 215-265 g at time of ovariectomy were used. The animals were housed individually in an environmentally-controlled room (temperature: 22±3° C.; humidity: 50±20%; 12-h light-12-h dark cycles, lights on at 07:15 h). The animals were allowed free access to tap water and a certified rodent feed (Lab Diet 5002 (pellet), Ralston Purina, St-Louis, Mo.). The experiment was conducted in an animal facility approved by the Canadian Council on Animal Care (CCAC) and the Association for Assessment and Accreditation of Laboratory Animal Care (AAALAC) in accordance with the CCAC Guide for Care and Use of Experimental Animals.
On the first day of the study, the animals of the appropriate groups were bilaterally ovariectomized (OVX) under isoflurane anesthesia. The tested compounds were then given once daily by oral gavage as a suspension in 0.4% methylcellulose (0.5 ml/rat) from day 1 to day 14 of the study. Animals of groups 1 and 2 received the vehicle alone during the same time period. On day 15 of the study, 4 animals per group were perfused with 10% buffered formalin and tissues were processed for histological examination. The other animals were killed by exsanguination at the abdominal aorta under isoflurane anesthesia. The uterus and vagina were removed, stripped of remaining fat and weighed. A specimen from each uterus was fixed in 10% buffered formalin for determination of the height of endometrial epithelial cells using a computerized-assisted program (Software Image-Pro Plus).
Total cholesterol was measured on serum samples collected from overnight fasted animals using a Boehringer Mannheim Diagnostic Hitachi 911 Analyzer (Boehringer Mannheim Diagnostic Laboratory Systems).

Test [4] deals with OVX rats having established osteopenia. As to the kind of experiment: Treatment of OVX rats having established osteopenia, 26 weeks (Example 5B): BMD, total body fat. It counts as in vivo, Sprague-Dawley rats. To be noted: treatment started 10 weeks after OVX, 26 weeks daily. The method, then: as §1, with “Height” for “Ten”, “nine month-old” for “twelve week-old”, “Canada)” for “Canada) weighing approximately 220-270 g at start of treatment”, “used in this experiment.” for “used.”, “prior to” for “before starting”, “ovariectomy. Animals were bilaterally ovariectomized (OVX) under isoflurane anesthesia. Twenty animals were kept intact as control.” for “experiments.”
Treatments were initiated 10 weeks after the ovariectomy and were performed once daily during 26 weeks. Animals not receiving a test article were treated with the appropriate vehicle alone during the same period.
Prior to the OVX, prior to the first day treatment (10 weeks after OVX) and after 26 weeks of treatment, individual rats under Isoflurane anesthesia had their whole body skeleton, lumbar spine and right femur scanned using dual energy x-ray absorptiometry (DEXA; QDR 4500A, Hologic, Waltham, Mass.) and a Regional High Resolution Scan software. The bone mineral density (BMD) of the lumbar spine (vertebrae L2 to L4), femur and the total body composition (fat percentage) were determined.

The subject of test [5] is ovariectomized female rats. As to the kind of experiment: Prevention of bone loss, body fat, serum cholesterol and ALP, 3-month treatment of OVX rats (Example 5A, experiment 1). It counts as in vivo, Sprague-Dawley rats. The following applies: OVX rats, 3 months. The method, then: as §1
On day 1 of the study, the animals of the appropriate groups were bilaterally ovariectomized (OVX) under isoflurane anesthesia. […] Treatments were initiated on day 2 of the study and were performed once daily during 3 months.
as §2, §3

Test [6] deals with uterus and vagina of ovariectomized mice. As to the kind of experiment: Uterine and vaginal weight in ovariectomized mice treated or not with estrone (9 days oral). It counts as in vivo, BALB/c mice. The method, then:
(St-Constant, Quebec, Canada) and housed 5 per cage in a temperature (23±1° C.)—and light (12 h light/day, lights on at 7:15)—controlled environment. The mice were fed rodent chow and tap water ad libitum. […] Ten mice were kept intact as controls. […] Compounds were dissolved in ethanol (4% final concentration) and administered in 0.4% methylcellulose. Mice in the intact and OVX control groups received the vehicle alone (4% ETOH-0.4% methylcellulose) during the 9-day period. The animals were killed by exsanguination at the abdominal aorta on the 11th morning following ovariectomy.

[7] abbreviates: 10 μg alone, absence of estrone, OVX mice.

Structures are written as SMILES. Where a name gives a salt, the structure may show the parent alone. Marks after values point to notes of the source that are not given here.

Take `Oc1ccc2c(c1)CC[C@H](c1ccccc1)[C@@H]2c1ccc(OCCN2CCCC2)cc1` (racemic) [Lasofoxifene, cis-1R-[4′-pyrrolidino-ethoxyphenyl]-2S-phenyl-6-hydroxy-1,2,3,4,-tetrahydronaphthalene D-(−)-tartrate salt]: the Serum cholesterol in test [1] (OVX rats) is 0.60 ± 0.02 mmol/L. The “OVX-induced increase on serum cholesterol levels” value in test [1] (alone or in combination with Premarin) is “completely prevented”. Besides, the “Function as SERM” value in test [2] is “found to function as SERMs”.

In the case of `CC/C(=C(/c1ccc(OCCN(C)C)cc1)c1cccc(O)c1)c1ccccc1` [Droloxifene, (E)-3-[1-[4-[2-(Dimethylamino)ethoxy]phenyl]-2-phenyl-1-butenyl]phenol], the Progressing tumors in the test with ZR-75-1 breast tumors (50 μg daily + estrone) came to 100%. In addition, in the test on ZR-75-1 breast tumors (absence of estrone), the “Change of ZR-75-1 tumor size compared to the OVX control group” value is given as “did not significantly change”. Further, in test [2], the “Function as SERM” value is on record as “found to function as SERMs”; the “Estrogenic activity in breast and endometrial tissues” value (“Estrogenic activity” below) was “have some estrogenic activities”. The Endometrial epithelium thickness in the test with endometrial epithelium stood at 18.50 ± 0.07 μm.

On to `C[C@]12CC[C@@H]3c4ccc(O)cc4CC[C@H]3[C@@H]1CC[C@@H]2O` [E2, 17β-estradiol, reference compound], for which, in test [3] (OVX + E2 2 mg/kg), the Endometrial epithelial height was determined as 41.9±1.2 μm, the “Endometrial epithelial height higher than in intact control animals” value stood at 34.7%, the “Inhibition of serum cholesterol levels” value was determined as 53% and the Vaginal weight is 149.9 ± 9.0 mg. Further, in test [3] (OVX + E2 2 mg/kg oral daily, 2 weeks), the Uterine weight stood at 490 ± 26 mg. Further, in test [4], the “Femoral BMD” value is “completely prevented the further decrease”, the “Lumbar spine BMD” value is “completely prevented the further decrease” and the Total body fat result was “prevented the 17% increase”. Besides, the “Serum ALP” value in test [5] was 59 ± 4 IU/L.

Take `Cl.O=C(c1ccc(OCCN2CCCCC2)cc1)c1c(-c2ccc(O)cc2)sc2cc(O)ccc12` [Raloxifene, [2-(4-hydroxyphenyl)-6-hydroxybenzo[b]thien-3-yl][4-[2-(1-piperidinyl)ethoxy]phenyl]-methanone hydrochloride]: in test [6] (setting [7]), the “Stimulation of uterine weight” value is reported as 85% and the “Stimulation of vaginal weight” value was 56%. In addition, the “Inhibition of estrone-stimulated vaginal weight” value in test [6] (10 μg daily oral, 9 days, OVX mice + E1) is reported as 24%. Also, in the test with ZR-75-1 breast tumors (50 μg daily + estrone), the Progressing tumors was 81%. Further, the “Change of ZR-75-1 tumor size compared to the OVX control group” value in the test on ZR-75-1 breast tumors (absence of estrone) is recorded as “did not significantly change”. Moreover, in test [2], the “Function as SERM” value is “found to function as SERMs”; the “Estrogenic activity” value is listed as “have some estrogenic activities”. The Endometrial epithelium thickness in the test with endometrial epithelium is 22.33^a ± 0.05 μm.

On to `CC/C(=C(\c1ccc(I)cc1)c1ccc(OCCN2CCCC2)cc1)c1ccccc1` [Idoxifene, (E)-1-[2-[4-[1-(4-Iodophenyl)-2-phenyl-1-butenyl]phenoxy]ethyl]pyrrolidine], for which the Progressing tumors with ZR-75-1 breast tumors (50 μg daily + estrone) is 71%. The compound further had a Progressing tumors with ZR-75-1 breast tumors (200 μg daily, absence of estrone) of 33%. For the same compound, in test [2], the “Function as SERM” value is on record as “found to function as SERMs”; the “Estrogenic activity” value is “have some estrogenic activities”. Besides, the “Inhibition of the stimulatory effect of estrone on epithelial height” value in the test with endometrial epithelium (50 μg daily oral + estrone) is given as 50%.
